Data published in ChEMBL document CHEMBL1133424, “Fluoresceinated FKBP12 ligands for a high-throughput fluorescence polarization assay” (Bioorg Med Chem Lett, 2000).

Key:
[1] = biological target: T1, Peptidyl-prolyl cis-trans isomerase FKBP1A (Homo sapiens, UniProt P62942); assay: Binding affinity of compound for FK506 binding protein 12
[2] = biological target: T1, Peptidyl-prolyl cis-trans isomerase FKBP1A; assay: Concentration required to produce a half-maximal FP signal at against FK506 binding protein 12 at ligand concentration of 100 nM

T1 sequence (P62942 whole entry): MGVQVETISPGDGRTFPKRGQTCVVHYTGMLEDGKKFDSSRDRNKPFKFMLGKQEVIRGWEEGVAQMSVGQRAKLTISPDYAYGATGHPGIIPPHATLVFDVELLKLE

Row | Ki [1] | IC50 [2] | Structure (SMILES)
1 | 482 nM | 980 nM | CC(C)(C)CC(=O)C(=O)N1CCCC[C@H]1C(=O)OCCC/N=C(S)/N=C1\C=CC(=C2c3ccc(O)cc3Oc3cc(O)ccc32)C(C(=O)O)=C1
2 | 1300 nM | 1650 nM | CCC(C)(C)C(=O)C(=O)N1CCC[C@H]1C(=O)OCCC/N=C(S)/N=C1\C=CC(=C2c3ccc(O)cc3Oc3cc(O)ccc32)C(C(=O)O)=C1
3 | 32 nM | 250 nM | CC(C)(C)CC(=O)C(=O)N1CCCC[C@H]1C(=O)OC(CCCc1ccccc1)CC/N=C(S)/N=C1\C=CC(=C2c3ccc(O)cc3Oc3cc(O)ccc32)C(C(=O)O)=C1 (stereo partly drawn)
4 | 526 nM | 410 nM | COc1cc(C(=O)C(=O)N2CCCC[C@H]2C(=O)OCCCC/N=C(S)/N=C2\C=CC(=C3c4ccc(O)cc4Oc4cc(O)ccc43)C(C(=O)O)=C2)cc(OC)c1OC
